{"source": "patent US6548715B1", "about": "“Structural analogues of vitamin D” (Laboratoire Theramex S.A., priority 1993, dated 2003)", "key": {"[1]": {"target": "T1, human DBP (vitamin D binding protein) (Homo sapiens, UniProt P02774)", "T1 sequence (P02774 17-474)": "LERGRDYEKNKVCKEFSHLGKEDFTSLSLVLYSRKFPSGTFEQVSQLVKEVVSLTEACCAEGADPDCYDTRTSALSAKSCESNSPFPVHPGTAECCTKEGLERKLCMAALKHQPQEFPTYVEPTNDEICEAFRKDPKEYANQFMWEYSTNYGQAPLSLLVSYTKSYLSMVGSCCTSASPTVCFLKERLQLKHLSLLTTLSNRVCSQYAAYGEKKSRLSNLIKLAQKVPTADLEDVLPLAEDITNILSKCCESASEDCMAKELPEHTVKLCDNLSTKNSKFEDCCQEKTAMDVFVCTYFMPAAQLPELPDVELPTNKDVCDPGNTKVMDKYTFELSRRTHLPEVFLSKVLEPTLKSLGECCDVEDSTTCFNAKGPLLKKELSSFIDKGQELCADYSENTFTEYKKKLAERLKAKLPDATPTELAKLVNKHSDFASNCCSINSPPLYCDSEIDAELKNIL", "assay": "Relative affinity for purified human vitamin D-binding protein (hDBP)", "details": "% of the activity of 1α,25-(OH)2D3 at 50% of its activity (B50)"}, "HL-60 cells": {"tested_on": "HL-60 cells", "assay": "HL-60 cell differentiation (NBT reduction)", "assay_type": "cell-based", "details": "% of the activity of 1α,25-(OH)2D3 at 50% of its activity (B50); human leukemia cells", "experimental": "(§1) HL-60 cells were seeded at 1.2×10^5 cells/ml and 1α,25-(OH)2D3 or its anologs were added in ethanol (final concentration <0.2%) in RPMI 1640 medium supplemented with 10% heat-inactivated fetal calf serum (FCS) for 4 d at 37° C. Cells were then assayed for maturation by NBT reduction assay as described (22) using a hemacytometer, or for proliferation by cell counting and [^3H] thymidine incorporation. MG 63 cells, seeded at 5×10^3 cells/ml in 96 well flat bottomed culture plates (Falcon, Becton Dickinson, N.J.) in a volume of 0.2 ml of DMEM and 2% FCS, were incubated with 1α,25-(OH)2D3 or its analogues for 72 h. Osteocalcin was then measured in the culture medium using a homologous human osteocalcin RIA (39). Breast carcinoma cells (MCF-7 or GR) were grown in DMEM/nut.mix F-12 (HAM) medium supplemented with 10% FCS. Cells (5000/Well) were incubated during 24 h in 96 well tissue culture plates (Falcon 3072) followed by a 72 h incubation with/without 1α,25-(OH)2D3 or analogues. The cells were then incubated with [^3H]thymidine (1 μCi/well) for 4 h and harvested thereafter in NaOH (0.1 M) and the radioactivity counted. The protein content of the cells was measured by the Pierce BCA protein assay (Rockford, Ill.)."}, "MG-63 cells": {"tested_on": "MG-63 cells", "assay": "MG-63 osteosarcoma cells, osteocalcin secretion", "assay_type": "cell-based", "details": "% of the activity of 1α,25-(OH)2D3 at 50% of its activity (B50); human osteosarcoma cells", "experimental": "as §1"}, "MCF-7 cells": {"tested_on": "MCF-7 cells", "assay": "MCF-7 breast cancer cell proliferation ([3H]thymidine incorporation)", "assay_type": "cell-based", "details": "% of the activity of 1α,25-(OH)2D3 at 50% of its activity (B50); human breast cancer cells", "experimental": "as §1"}, "[2]": {"tested_on": "human normal keratinocytes", "assay": "Human keratinocyte proliferation ([3H]thymidine incorporation)", "assay_type": "cell-based", "details": "% of the activity of 1α,25-(OH)2D3 at 50% of its activity (B50)", "experimental": "to evaluate the effects on cell proliferation of non-malignant cells and especially to evaluate their potential for use for dermatological disorders, the new compounds were tested in cultures of human normal keratinocytes.\nHuman skin keratinocytes were isolated and cultured using a modification of the method of Kitano and Okada (38).\nBriefly, the skin from biopsies of patients with breast tumors, was cutted into pieces measuring 3-5 mm and soaked overnight at 4° C. in a solution of dispase (20 Boehringer units/ml). The epidermis was peeled from the dermis, washed with calcium- and magnesium-free phosphate buffered saline and incubated and shaked in a 0.25% trypsin solution for 10 min at room temperature. The reaction was then stopped by addition of PBS containing 10% FCS. The cells were collected after centrifugation at 4° C. for 10 min at 800 rpm. After an additional washing with PBS, the pellet was suspended in culture medium into 25 cm^2 primaria flasks from Becton Dickinson. The keratinocytes were cultivated at 37° C. in an atmosphere of 5% CO2 in air. A few hours later, the medium was replaced by new one. The medium [Keratinocyte Medium from Gibco containing Epidermal Growth Factor (5 ng/ml), Bovine Pituitary Extract (35-50 μg/ml) and antibiotics] was renewed every other day until confluency.\nKeratinocytes were cultured in 96-well plate and, after 24 hours, were treated with various concentrations of vitamin D analogues, followed by pulse labelling with 1 μCi of [^3H]thymidine for 3 hours. Cultures were washed 3 times with PBS and twice with 10% (v/v) ice cold trichloroacetic acid. Cells were solubilized with 1 M NaOH and radioactivity was counted in a scintillation counter."}, "[3]": {"tested_on": "vitamin D-deficient chicks", "assay": "Calcemic effect in vitamin D-deficient chicks (serum calcium)", "assay_type": "in vivo, chick", "details": "% of the activity of 1α,25-(OH)2D3 at 50% of its activity (B50); vitamin D-deficient chicks injected 10 consecutive days", "experimental": "The antirachitic activity of the analogues was tested in 3 weeks old vitamin D-deficient chicks injected for 10 consecutive days with 1α,25-(OH)2D3 or its analogues (22,23). Serum calcium (by atomic absorptiometry) and osteocalcin (by specific RIA), duodenal calbindin D-28K (by RIA) and bone calcium content were measured. The hypercalcemic effect of the most interesting anologues was also tested in vitamin D-replete normal NMRI mice by daily sc injection of 1α,25-(OH)2D3, its analogues or the solvent for 7 consecutive days, using serum, bone and urinary calcium excretion and serum osteocalcin (by specific mouse RIA) as parameters (40)."}, "[4]": {"tested_on": "spontaneously diabetic NOD mice", "assay": "Prevention of autoimmune disease recurrence after syngeneic islet transplantation in diabetic NOD mice", "assay_type": "in vivo", "details": "Nr 46 10 μg/kg/2d", "from_the_text": "To evaluate the immune potential of the analogues the well known model of prevention of autoimmune disease recurrence in the spontaneously diabetic NOD mice was used. When syngeneic NOD islets are transplanted under the kidney capsule of spontaneously diabetic NOD mice, diabetes is only cured for some days, since in the absence of immunomodulatory treatment, the newly transplanted islets are destroyed within 14 days."}, "vitamin D receptor": {"target": "T2, vitamin D receptor (Sus scrofa, UniProt A3RGC1)", "T2 sequence (A3RGC1 1-427)": "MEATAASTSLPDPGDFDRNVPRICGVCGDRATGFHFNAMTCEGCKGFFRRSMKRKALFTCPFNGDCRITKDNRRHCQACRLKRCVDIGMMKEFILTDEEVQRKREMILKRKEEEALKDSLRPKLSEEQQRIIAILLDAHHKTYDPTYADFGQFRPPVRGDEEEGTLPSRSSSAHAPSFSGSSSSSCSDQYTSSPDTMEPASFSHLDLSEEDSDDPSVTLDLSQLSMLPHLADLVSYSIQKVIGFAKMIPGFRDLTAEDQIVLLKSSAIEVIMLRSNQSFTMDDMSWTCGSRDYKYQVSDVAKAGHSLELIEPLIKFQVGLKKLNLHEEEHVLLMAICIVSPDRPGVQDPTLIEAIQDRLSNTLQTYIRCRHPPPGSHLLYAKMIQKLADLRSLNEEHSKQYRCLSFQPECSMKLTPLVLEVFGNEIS", "details": "% of the activity of 1α,25-(OH)2D3 at 50% of its activity (B50); 1α,25-(OH)2D3 assigned 100%"}}, "data": [{"smiles": "CC(CC#CC(C)(C)O)C1CCC2C(=CC=C3CC(O)CC(O)C3)CCCC21C", "note": "(stereo not drawn) [Compound 46]", "values": [{"measurement": "Affinity for human DBP", "setting": "[1]", "result": "<0.5", "unit": "%"}, {"measurement": "Cell differentation/cell proliferation HL-60", "setting": "HL-60 cells", "result": 1650, "unit": "%"}, {"measurement": "Cell differentation/cell proliferation MG-63", "setting": "MG-63 cells", "result": 500, "unit": "%"}, {"measurement": "Cell differentation/cell proliferation MCF-7", "setting": "MCF-7 cells", "result": 1950, "unit": "%"}, {"measurement": "Cell differentation/cell proliferation keratinocytes", "setting": "[2]", "result": 1000, "unit": "%"}, {"measurement": "Ca serum chick", "setting": "[3]", "result": 2, "unit": "%"}, {"measurement": "Mean survival of islets and range", "setting": "[4]", "result": "19 (6-51) d"}, {"measurement": "Affinity for pig receptor", "setting": "vitamin D receptor", "result": 30, "unit": "%"}]}, {"smiles": "C=C1C(=CC=CCC2(C)CCC(CCCC(O)(CC)CC)C2(C)C)CC(O)CC1O", "note": "(stereo not drawn) [Compound 12]", "values": [{"measurement": "Affinity for human DBP", "setting": "[1]", "result": 5, "unit": "%"}, {"measurement": "Cell differentation/cell proliferation HL-60", "setting": "HL-60 cells", "result": 250, "unit": "%"}, {"measurement": "Cell differentation/cell proliferation MG-63", "setting": "MG-63 cells", "result": 135, "unit": "%"}, {"measurement": "Cell differentation/cell proliferation MCF-7", "setting": "MCF-7 cells", "result": 80, "unit": "%"}, {"measurement": "Cell differentation/cell proliferation keratinocytes", "setting": "[2]", "result": 100, "unit": "%"}, {"measurement": "Ca serum chick", "setting": "[3]", "result": "<0.1", "unit": "%"}, {"measurement": "Affinity for pig receptor", "setting": "vitamin D receptor", "result": 45, "unit": "%"}]}, {"smiles": "C=C1C(=CC=CCC2(C)CCC(CCCC(C)(C)O)C2(C)C)CC(O)CC1O", "note": "(stereo not drawn) [Compound 11]", "values": [{"measurement": "Affinity for human DBP", "setting": "[1]", "result": 19, "unit": "%"}, {"measurement": "Cell differentation/cell proliferation HL-60", "setting": "HL-60 cells", "result": 30, "unit": "%"}, {"measurement": "Cell differentation/cell proliferation MG-63", "setting": "MG-63 cells", "result": 35, "unit": "%"}, {"measurement": "Cell differentation/cell proliferation MCF-7", "setting": "MCF-7 cells", "result": 30, "unit": "%"}, {"measurement": "Cell differentation/cell proliferation keratinocytes", "setting": "[2]", "result": 10, "unit": "%"}, {"measurement": "Ca serum chick", "setting": "[3]", "result": "<0.1", "unit": "%"}, {"measurement": "Affinity for pig receptor", "setting": "vitamin D receptor", "result": 8, "unit": "%"}]}, {"smiles": "CC1=C(/C=C\\C2=CCC[C@](C)([C@H](C)[C@H](C)CC[C@@H](O)C(C)C)C2)C[C@@H](O)C[C@@H]1O", "note": "[Compound 58]", "values": [{"measurement": "Affinity for human DBP", "setting": "[1]", "result": 1, "unit": "%"}, {"measurement": "Cell differentation/cell proliferation HL-60", "setting": "HL-60 cells", "result": 650, "unit": "%"}, {"measurement": "Cell differentation/cell proliferation MG-63", "setting": "MG-63 cells", "result": 115, "unit": "%"}, {"measurement": "Cell differentation/cell proliferation MCF-7", "setting": "MCF-7 cells", "result": 700, "unit": "%"}, {"measurement": "Cell differentation/cell proliferation keratinocytes", "setting": "[2]", "result": 1000, "unit": "%"}, {"measurement": "Ca serum chick", "setting": "[3]", "result": "<1", "unit": "%"}, {"measurement": "Affinity for pig receptor", "setting": "vitamin D receptor", "result": 3, "unit": "%"}]}, {"smiles": "C=C1/C(=C\\C=C2/CCC[C@](C)([C@H](C)[C@H](C)CC[C@H](O)C(C)C)C2)C[C@@H](O)C[C@@H]1O", "note": "[Compound 4]", "values": [{"measurement": "Affinity for human DBP", "setting": "[1]", "result": 5, "unit": "%"}, {"measurement": "Cell differentation/cell proliferation HL-60", "setting": "HL-60 cells", "result": 500, "unit": "%"}, {"measurement": "Cell differentation/cell proliferation MG-63", "setting": "MG-63 cells", "result": 100, "unit": "%"}, {"measurement": "Cell differentation/cell proliferation MCF-7", "setting": "MCF-7 cells", "result": 2000, "unit": "%"}, {"measurement": "Cell differentation/cell proliferation keratinocytes", "setting": "[2]", "result": 2000, "unit": "%"}, {"measurement": "Ca serum chick", "setting": "[3]", "result": "<1", "unit": "%"}, {"measurement": "Affinity for pig receptor", "setting": "vitamin D receptor", "result": 60, "unit": "%"}]}]}
